Patent US9487516B2, “Antibacterial oxadiazolone derivatives” (priority 2013, dated 2016)
≈ marks a conversion by molar mass, not a printed value.

Columns and labels:
Experiment in all cases: Bacterial growth minimal inhibitory concentration (microdilution, cation-adjusted Mueller-Hinton Broth)
Format in all cases: cell-based
[1] = tested on: Staphylococcus aureus ATCC29213; details: methicillin-sensitive and quinolone-sensitive strain, read-out: MIC for S. aureus ATCC29213
Procedure: (§1) Minimal Inhibitory Concentrations (MICs; mg/L) were determined in cation-adjusted MuellerHinton Broth by a microdilution method following the description given in “Methods for Dilution Antimicrobial Susceptibility Tests for Bacteria that Grow Aerobically”, Approved standard, 7th ed., Clinical and Laboratory Standards Institute (CLSI) Document M7-A7, Wayne, Pa., USA, 2006.
(§2) All Example compounds were tested against several Gram positive and Gram negative bacteria. […] Staphylococcus aureus A798, Enterococcus faecium A949 and Acinetobacter baumanii T6474 are multiply-resistant strains (in particular quinolone-resistant), while Moraxella catarrhalis A894 is a quinolone-sensitive strain and Staphylococcus aureus ATCC29213 is a methicillin-sensitive and quinolone-sensitive strain.

[2] = tested on: Staphylococcus aureus A798; details: multiply-resistant strain (in particular quinolone-resistant), read-out: MIC for S. aureus A798
Procedure: as §1, §2

[3] = tested on: Moraxella catarrhalis A894; details: quinolone-sensitive strain
Procedure: as §1, §2

[4] = tested on: Enterococcus faecium A949; details: multiply-resistant strain (in particular quinolone-resistant), read-out: MIC for E. faecium A949
Procedure: as §1, §2

[5] = tested on: Acinetobacter baumanii T6474; details: Acinetobacter baumannii, multiply-resistant strain (in particular quinolone-resistant)
Procedure: as §1, §2

Compound	MIC [1]	MIC [2]	MIC [3]	MIC [4]	MIC [5]
O=C1COc2ccc(-n3nc(CCCN[C@@H]4Cn5c(=O)ccc6ncc(F)c4c65)oc3=O)nc2N1 [Example 37, (S)-3-fluoro-4-{3-[5-oxo-4-(3-oxo-3,4-dihydro-2H-pyrido[3,2-b][1,4]oxazin-6-yl)-4,5-dihydro-[1,3,4]oxadiazol-2-yl]-propylamino}-4,5-dihydro-pyrrolo[3,2,1-de][1,5]naphthyridin-7-one]	0.25 µg/mL (≈ 0.521 µM)	0.25 µg/mL (≈ 0.521 µM)	0.125 µg/mL (≈ 0.261 µM)	4 µg/mL (≈ 8.34 µM)	2 µg/mL (≈ 4.17 µM)
O=C1COc2ccc(-n3nc(CCCN[C@@H]4Cn5c(=O)ccc6cccc4c65)oc3=O)nc2N1 [Example 34, (S)-1-{3-[5-oxo-4-(3-oxo-3,4-dihydro-2H-pyrido[3,2-b][1,4]oxazin-6-yl)-4,5-dihydro-[1,3,4]oxadiazol-2-yl]-propylamino}-1,2-dihydro-pyrrolo[3,2,1-ij]quinolin-4-one]	2 µg/mL (≈ 4.34 µM)	4 µg/mL (≈ 8.69 µM)	1 µg/mL (≈ 2.17 µM)	8 µg/mL (≈ 17.4 µM)	4 µg/mL (≈ 8.69 µM)
COc1ccc2ccc(=O)n3c2c1[C@H](NCCCc1nn(-c2ccc4c(n2)NC(=O)CO4)c(=O)o1)C3 [Example 39, (S)-9-methoxy-1-{3-[5-oxo-4-(3-oxo-3,4-dihydro-2H-pyrido[3,2-b][1,4]oxazin-6-yl)-4,5-dihydro-[1,3,4]oxadiazol-2-yl]-propylamino}-1,2-dihydro-pyrrolo[3,2,1-ij]quinolin-4-one]	1 µg/mL (≈ 2.04 µM)	2 µg/mL (≈ 4.08 µM)	1 µg/mL (≈ 2.04 µM)	8 µg/mL (≈ 16.3 µM)	1 µg/mL (≈ 2.04 µM)
CCSc1ccc(-n2nc(CCCN[C@H]3Cn4c(=O)cnc5ccc(F)c3c54)oc2=O)cc1 [Example 5, (R)-6-{3-[4-(4-ethylsulfanyl-phenyl)-5-oxo-4,5-dihydro-[1,3,4]oxadiazol-2-yl]-propylamino}-7-fluoro-5,6-dihydro-pyrrolo[1,2,3-de]quinoxalin-3-one]	0.031 µg/mL (≈ 0.0663 µM)	0.063 µg/mL (≈ 0.135 µM)	0.25 µg/mL (≈ 0.535 µM)	0.5 µg/mL (≈ 1.07 µM)	4 µg/mL (≈ 8.56 µM)
O=C1CSc2ccc(-n3nc(CCCN[C@@H]4Cn5c(=O)ccc6ccc(F)c4c65)oc3=O)cc2N1 [Example 15, (S)-9-fluoro-1-{3-[5-oxo-4-(3-oxo-3,4-dihydro-2H-benzo[1,4]-thiazin-6-yl)-4,5-dihydro-[1,3,4]oxadiazol-2-yl]-propylamino}-1,2-dihydro-pyrrolo[3,2,1-ij]quinolin-4-one]	≤ 0.016 µg/mL	≤ 0.016 µg/mL	≤ 0.016 µg/mL	0.063 µg/mL (≈ 0.128 µM)	0.125 µg/mL (≈ 0.253 µM)
N#Cc1ccc2ccc(=O)n3c2c1[C@H](NCCCc1nn(-c2ccc4c(n2)NC(=O)CO4)c(=O)o1)C3 [Example 41, (S)-4-oxo-1-{3-[5-oxo-4-(3-oxo-3,4-dihydro-2H-pyrido[3,2-b][1,4]oxazin-6-yl)-4,5-dihydro-[1,3,4]oxadiazol-2-yl]-propylamino}-1,2-dihydro-4H-pyrrolo[3,2,1-ij]quinoline-9-carbonitrile]	0.063 µg/mL (≈ 0.13 µM)	0.125 µg/mL (≈ 0.257 µM)	0.063 µg/mL (≈ 0.13 µM)	0.5 µg/mL (≈ 1.03 µM)	0.125 µg/mL (≈ 0.257 µM)
CCCc1ccc(-n2nc(CCCN[C@@H]3Cn4c(=O)cnc5ccc(F)c3c54)oc2=O)cc1 [Example 27, (S)-7-fluoro-6-{3-[5-oxo-4-(4-propyl-phenyl)-4,5-dihydro-[1,3,4]oxadiazol-2-yl]-propylamino}-5,6-dihydro-pyrrolo[1,2,3-de]quinoxalin-3-one]	0.5 µg/mL (≈ 1.11 µM)	2 µg/mL (≈ 4.45 µM)	4 µg/mL (≈ 8.9 µM)	2 µg/mL (≈ 4.45 µM)	4 µg/mL (≈ 8.9 µM)
CCOc1ccc(-n2nc(CCCN[C@@H]3Cn4c(=O)ccc5ccc(F)c3c54)oc2=O)cc1 [Example 28, (S)-1-{3-[4-(4-ethoxy-phenyl)-5-oxo-4,5-dihydro-[1,3,4]oxadiazol-2-yl]-propylamino}-9-fluoro-1,2-dihydro-pyrrolo[3,2,1-ij]quinolin-4-one]	2 µg/mL (≈ 4.44 µM)	4 µg/mL (≈ 8.88 µM)	8 µg/mL (≈ 17.8 µM)	> 8 µg/mL	4 µg/mL (≈ 8.88 µM)
O=C1CSc2ccc(-n3nc(CCCN[C@H]4Cn5c(=O)cnc6ccc(F)c4c65)oc3=O)nc2N1 [Example 16, (R)-7-fluoro-6-{3-[5-oxo-4-(3-oxo-3,4-dihydro-2H-pyrido[3,2-b][1,4]-thiazin-6-yl)-4,5-dihydro-[1,3,4]oxadiazol-2-yl]-propylamino}-5,6-dihydro-pyrrolo[1,2,3-de]quinoxalin-3-one]	0.063 µg/mL (≈ 0.127 µM)	0.063 µg/mL (≈ 0.127 µM)	0.063 µg/mL (≈ 0.127 µM)	0.25 µg/mL (≈ 0.505 µM)	0.25 µg/mL (≈ 0.505 µM)
CCOc1ccc(-n2nc(CCCN[C@H]3Cn4c(=O)cnc5ccc(F)c3c54)oc2=O)cc1 [Example 31, (R)-6-{3-[4-(4-ethoxy-phenyl)-5-oxo-4,5-dihydro-[1,3,4]oxadiazol-2-yl]-propylamino}-7-fluoro-5,6-dihydro-pyrrolo[1,2,3-de]quinoxalin-3-one]	1 µg/mL (≈ 2.22 µM)	4 µg/mL (≈ 8.86 µM)	8 µg/mL (≈ 17.7 µM)	> 8 µg/mL	8 µg/mL (≈ 17.7 µM)
O=C1COc2ccc(-n3nc(CCCN[C@H]4Cn5c(=O)cnc6ccc(F)c4c65)oc3=O)cc2N1 [Example 13, (R)-7-fluoro-6-{3-[5-oxo-4-(3-oxo-3,4-dihydro-2H-benzo[1,4]oxazin-6-yl)-4,5-dihydro-[1,3,4]oxadiazol-2-yl]-propylamino}-5,6-dihydro-pyrrolo[1,2,3-de]quinoxalin-3-one]	0.031 µg/mL (≈ 0.0648 µM)	0.031 µg/mL (≈ 0.0648 µM)	≤ 0.016 µg/mL	0.25 µg/mL (≈ 0.523 µM)	0.25 µg/mL (≈ 0.523 µM)
O=c1oc(CCCN[C@H]2Cn3c(=O)cnc4ccc(F)c2c43)nn1-c1ccc2c(c1)OCCO2 [Example 25, (R)-6-{3-[4-(2,3-dihydro-benzo[1,4]dioxin-6-yl)-5-oxo-4,5-dihydro-[1,3,4]oxadiazol-2-yl]-propylamino}-7-fluoro-5,6-dihydro-pyrrolo[1,2,3-de]quinoxalin-3-one]	2 µg/mL (≈ 4.3 µM)	4 µg/mL (≈ 8.59 µM)	8 µg/mL (≈ 17.2 µM)	8 µg/mL (≈ 17.2 µM)	8 µg/mL (≈ 17.2 µM)
CCCc1ccc(-n2nc(CCCN[C@@H]3Cn4c(=O)ccc5ccc(F)c3c54)oc2=O)cc1 [Example 1, (S)-9-fluoro-1-{3-[5-oxo-4-(4-propyl-phenyl)-4,5-dihydro-[1,3,4]oxadiazol-2-yl]-propylamino}-1,2-dihydro-pyrrolo[3,2,1-ij]quinolin-4-one]	0.25 µg/mL (≈ 0.557 µM)	2 µg/mL (≈ 4.46 µM)	2 µg/mL (≈ 4.46 µM)	1 µg/mL (≈ 2.23 µM)	> 8 µg/mL
O=c1oc(CCCN[C@@H]2Cn3c(=O)cnc4ccc(F)c2c43)nn1-c1ccc2c(c1)OCCO2 [Example 24, (S)-6-{3-[4-(2,3-dihydro-benzo[1,4]dioxin-6-yl)-5-oxo-4,5-dihydro-[1,3,4]oxadiazol-2-yl]-propylamino}-7-fluoro-5,6-dihydro-pyrrolo[1,2,3-de]quinoxalin-3-one]	2 µg/mL (≈ 4.3 µM)	8 µg/mL (≈ 17.2 µM)	4 µg/mL (≈ 8.59 µM)	> 8 µg/mL	4 µg/mL (≈ 8.59 µM)
CCOc1ccc(-n2nc(CCCN[C@H]3Cn4c(=O)ccc5ccc(F)c3c54)oc2=O)cc1 [Example 29, (R)-1-{3-[4-(4-ethoxy-phenyl)-5-oxo-4,5-dihydro-[1,3,4]oxadiazol-2-yl]-propylamino}-9-fluoro-1,2-dihydro-pyrrolo[3,2,1-ij]quinolin-4-one]	2 µg/mL (≈ 4.44 µM)	4 µg/mL (≈ 8.88 µM)	8 µg/mL (≈ 17.8 µM)	> 8 µg/mL	4 µg/mL (≈ 8.88 µM)
O=c1oc(CCCN[C@H]2Cn3c(=O)ccc4ccc(F)c2c43)nn1-c1ccc2c(c1)OCCO2 [Example 23, (R)-1-{3-[4-(2,3-dihydro-benzo[1,4]dioxin-6-yl)-5-oxo-4,5-dihydro-[1,3,4]oxadiazol-2-yl]-propylamino}-9-fluoro-1,2-dihydro-pyrrolo[3,2,1-ij]quinolin-4-one]	4 µg/mL (≈ 8.61 µM)	8 µg/mL (≈ 17.2 µM)	4 µg/mL (≈ 8.61 µM)	> 8 µg/mL	> 8 µg/mL
Cc1ccc2ccc(=O)n3c2c1[C@H](NCCCc1nn(-c2ccc4c(n2)NC(=O)CO4)c(=O)o1)C3 [Example 40, (S)-9-methyl-1-{3-[5-oxo-4-(3-oxo-3,4-dihydro-2H-pyrido[3,2-b][1,4]oxazin-6-yl)-4,5-dihydro-[1,3,4]oxadiazol-2-yl]-propylamino}-1,2-dihydro-pyrrolo[3,2,1-ij]quinolin-4-one]	1 µg/mL (≈ 2.11 µM)	2 µg/mL (≈ 4.22 µM)	0.5 µg/mL (≈ 1.05 µM)	2 µg/mL (≈ 4.22 µM)	2 µg/mL (≈ 4.22 µM)
O=C1CSc2ccc(-n3nc(CCCN[C@H]4Cn5c(=O)ccc6ccc(F)c4c65)oc3=O)nc2N1 [Example 14, (R)-9-fluoro-1-{3-[5-oxo-4-(3-oxo-3,4-dihydro-2H-pyrido[3,2-b][1,4]-thiazin-6-yl)-4,5-dihydro-[1,3,4]oxadiazol-2-yl]-propylamino}-1,2-dihydro-pyrrolo[3,2,1-ij]quinolin-4-one]	≤ 0.016 µg/mL	0.031 µg/mL (≈ 0.0627 µM)	0.031 µg/mL (≈ 0.0627 µM)	0.25 µg/mL (≈ 0.506 µM)	0.25 µg/mL (≈ 0.506 µM)
CCCc1ccc(-n2nc(CCCN[C@H]3Cn4c(=O)cnc5ccc(F)c3c54)oc2=O)cc1 [Example 2, (R)-7-fluoro-6-{3-[5-oxo-4-(4-propyl-phenyl)-4,5-dihydro-[1,3,4]oxadiazol-2-yl]-propylamino}-5,6-dihydro-pyrrolo[1,2,3-de]quinoxalin-3-one]	0.125 µg/mL (≈ 0.278 µM)	0.5 µg/mL (≈ 1.11 µM)	2 µg/mL (≈ 4.45 µM)	1 µg/mL (≈ 2.22 µM)	> 8 µg/mL
